By EC50 is commonly meant the concentration that produces a half-maximal response.

Sequence of Neuronal acetylcholine receptor subunit alpha-7 (P36544 whole entry): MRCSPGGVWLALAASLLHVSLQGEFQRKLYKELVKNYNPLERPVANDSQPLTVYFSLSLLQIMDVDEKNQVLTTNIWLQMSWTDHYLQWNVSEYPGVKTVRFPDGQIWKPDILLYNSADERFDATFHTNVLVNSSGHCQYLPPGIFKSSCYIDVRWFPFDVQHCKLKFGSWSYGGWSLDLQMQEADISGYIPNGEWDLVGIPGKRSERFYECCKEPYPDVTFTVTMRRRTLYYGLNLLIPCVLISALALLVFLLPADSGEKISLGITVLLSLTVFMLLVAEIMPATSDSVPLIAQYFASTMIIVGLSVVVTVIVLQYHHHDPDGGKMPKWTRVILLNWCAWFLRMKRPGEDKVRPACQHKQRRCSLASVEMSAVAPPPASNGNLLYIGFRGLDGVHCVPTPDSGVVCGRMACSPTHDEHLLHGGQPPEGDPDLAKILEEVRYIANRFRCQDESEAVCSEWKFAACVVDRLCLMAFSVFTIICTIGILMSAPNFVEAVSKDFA

The test has as its target Neuronal acetylcholine receptor subunit alpha-7 (Homo sapiens, UniProt P36544). In words: Positive allosteric modulation of human alpha 7 nAChR expressed in HEK cells co-expressing human RIC3 assessed as increase in acetylcholine-induced channel current at holding potential of -60 mV incubated for 58 secs followed by acetylcholine treatment for 1 sec by patch clamp electrophysiology assay. The class given is cell-based. In general terms: In patch-clamp work, channel activity is measured electrically.
As to `CC(Oc1cccc(Cl)c1)c1nc([C@H]2[C@H](c3ccc(S(N)(=O)=O)cc3)C2(C)C)no1` (stereo not given in full), the EC50 turned out to be 93 nM.

As to `CC1(C)[C@@H](c2ccc(S(N)(=O)=O)cc2)[C@@H]1c1noc(-c2ccc(F)cc2)n1`, the EC50 stood at 93 nM.

In the case of `NS(=O)(=O)c1ccc([C@H]2[C@H](c3noc(-c4ccccc4)n3)C2(F)F)cc1`, the EC50 is 83 nM.

For the compound `CC1(C)[C@@H](c2ccc(S(N)(=O)=O)cc2)[C@@H]1c1noc(C2CC(F)(F)C2)n1`, the EC50 is 98 nM.

Regarding `CC1(C)[C@@H](c2ccc(S(N)(=O)=O)cc2)[C@@H]1c1noc(C2CCCC2)n1`, the EC50 is 69 nM.

Values taken from ChEMBL document CHEMBL4251688, “Allosteric Modulators of Nicotinic Acetylcholine Receptors Useful for the Treatment of Cognitive Impairment” (ACS Med Chem Lett, 2018).
